Reference: patent US11739078B2, “Methods of inhibiting kinases” (INSILICO MEDICINE IP LIMITED, priority 2019, dated 2023)
Read-outs that look alike come from different tables or passages of the source.

How the values were obtained:
[1] = biological target: TNIK (Homo sapiens (Human), UniProt Q9UKE5); assay: TNIK enzymatic assay (radiometric kinase inhibition); assay type: biochemical
Description: The compounds were studied for function as TNIK inhibitors to generate the data of Table 1. […] (specific activity and concentration as required). The reaction is initiated by the addition of the Mg/ATP mix. After incubation for 40 minutes at room temperature, the reaction is stopped by the addition of phosphoric acid to a concentration of 0.5%.

[2] = biological target: MAP4K4 (h) (Homo sapiens (Human), UniProt O95819); assay: MAP4K4 in vitro kinase assay (radiometric); assay type: biochemical; conditions: read-out: MAP4K4_IC50
MAP4K4 (h), sequence (O95819 whole entry): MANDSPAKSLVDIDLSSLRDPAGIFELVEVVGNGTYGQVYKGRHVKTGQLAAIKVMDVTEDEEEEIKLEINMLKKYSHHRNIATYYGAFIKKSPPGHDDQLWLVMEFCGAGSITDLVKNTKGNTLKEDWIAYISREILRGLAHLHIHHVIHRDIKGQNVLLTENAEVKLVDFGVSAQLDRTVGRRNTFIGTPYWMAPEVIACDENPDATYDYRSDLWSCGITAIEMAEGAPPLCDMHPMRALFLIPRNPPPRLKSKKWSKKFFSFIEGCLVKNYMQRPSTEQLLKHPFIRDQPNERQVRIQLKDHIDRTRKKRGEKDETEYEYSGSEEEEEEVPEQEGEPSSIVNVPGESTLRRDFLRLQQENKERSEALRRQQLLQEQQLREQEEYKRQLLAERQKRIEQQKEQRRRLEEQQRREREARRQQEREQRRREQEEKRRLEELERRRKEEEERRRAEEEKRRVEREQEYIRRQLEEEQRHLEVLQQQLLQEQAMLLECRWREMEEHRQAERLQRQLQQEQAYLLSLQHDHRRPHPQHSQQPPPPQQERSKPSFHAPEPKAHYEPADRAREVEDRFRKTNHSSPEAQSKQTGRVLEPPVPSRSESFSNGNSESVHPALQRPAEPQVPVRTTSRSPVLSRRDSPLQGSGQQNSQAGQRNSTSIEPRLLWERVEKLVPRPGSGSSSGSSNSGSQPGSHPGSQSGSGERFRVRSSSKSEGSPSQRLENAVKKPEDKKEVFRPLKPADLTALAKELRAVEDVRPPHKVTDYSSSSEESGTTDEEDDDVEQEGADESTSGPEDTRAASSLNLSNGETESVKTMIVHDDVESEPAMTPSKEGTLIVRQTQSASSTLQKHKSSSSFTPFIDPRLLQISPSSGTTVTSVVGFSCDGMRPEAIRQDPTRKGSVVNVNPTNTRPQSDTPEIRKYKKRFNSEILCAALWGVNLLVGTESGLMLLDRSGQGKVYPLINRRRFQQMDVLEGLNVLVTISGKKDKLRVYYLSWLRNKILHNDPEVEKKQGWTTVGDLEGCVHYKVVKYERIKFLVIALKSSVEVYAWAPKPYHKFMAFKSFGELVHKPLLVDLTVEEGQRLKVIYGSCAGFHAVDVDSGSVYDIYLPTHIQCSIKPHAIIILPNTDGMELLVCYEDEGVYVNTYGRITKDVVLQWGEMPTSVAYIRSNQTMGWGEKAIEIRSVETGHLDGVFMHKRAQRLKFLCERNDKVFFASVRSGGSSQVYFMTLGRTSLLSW
Description: (specific activity and concentration as required). The reaction is initiated by the addition of the Mg/ATP mix. After incubation for 40 minutes at room temperature, the reaction is stopped by the addition of phosphoric acid to a concentration of 0.5%.

[3] = TNIK enzymatic assay, Table 1, read-out: IC50

TNIK, sequence (Q9UKE5 whole entry): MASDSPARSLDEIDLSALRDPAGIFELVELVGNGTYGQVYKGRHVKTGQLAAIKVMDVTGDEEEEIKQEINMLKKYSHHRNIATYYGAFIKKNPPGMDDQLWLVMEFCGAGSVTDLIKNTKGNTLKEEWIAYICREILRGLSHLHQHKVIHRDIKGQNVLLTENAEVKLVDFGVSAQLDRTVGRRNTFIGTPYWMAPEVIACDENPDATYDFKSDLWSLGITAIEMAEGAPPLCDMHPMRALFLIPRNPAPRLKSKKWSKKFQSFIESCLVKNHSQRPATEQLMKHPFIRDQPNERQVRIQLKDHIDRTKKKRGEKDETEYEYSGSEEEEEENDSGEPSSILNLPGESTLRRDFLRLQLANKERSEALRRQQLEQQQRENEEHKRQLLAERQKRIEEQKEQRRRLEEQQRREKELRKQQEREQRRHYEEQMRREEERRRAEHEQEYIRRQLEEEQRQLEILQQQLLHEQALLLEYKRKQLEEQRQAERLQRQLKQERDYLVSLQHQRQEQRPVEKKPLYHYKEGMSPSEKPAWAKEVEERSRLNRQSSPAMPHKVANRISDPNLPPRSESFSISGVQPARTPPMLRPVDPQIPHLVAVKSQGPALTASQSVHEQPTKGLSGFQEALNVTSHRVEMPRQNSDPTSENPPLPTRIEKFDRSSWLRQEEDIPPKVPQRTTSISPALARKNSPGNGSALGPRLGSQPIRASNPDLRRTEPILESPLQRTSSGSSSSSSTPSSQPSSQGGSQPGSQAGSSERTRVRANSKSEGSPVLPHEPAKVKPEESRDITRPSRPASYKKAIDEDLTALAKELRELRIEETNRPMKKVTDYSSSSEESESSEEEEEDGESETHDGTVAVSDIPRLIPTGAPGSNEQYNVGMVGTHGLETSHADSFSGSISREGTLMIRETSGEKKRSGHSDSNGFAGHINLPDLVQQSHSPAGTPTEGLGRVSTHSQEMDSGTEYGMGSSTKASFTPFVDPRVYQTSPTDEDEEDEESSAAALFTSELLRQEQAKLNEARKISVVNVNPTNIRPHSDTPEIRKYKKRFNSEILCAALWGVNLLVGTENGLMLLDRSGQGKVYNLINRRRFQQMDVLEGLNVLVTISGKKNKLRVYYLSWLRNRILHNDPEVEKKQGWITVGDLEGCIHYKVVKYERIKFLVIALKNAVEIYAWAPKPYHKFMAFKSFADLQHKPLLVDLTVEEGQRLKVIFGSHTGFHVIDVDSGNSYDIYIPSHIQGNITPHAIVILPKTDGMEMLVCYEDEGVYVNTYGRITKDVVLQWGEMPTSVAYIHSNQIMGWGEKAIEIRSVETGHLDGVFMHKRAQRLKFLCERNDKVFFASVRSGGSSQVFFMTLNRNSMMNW

Compound	IC50 [1, 3]	IC50 ([1]; read-out: TNIK_IC50)	IC50 [2]
O=C(Nc1ccccc1F)c1ccc(-c2c(-c3ccc(F)cc3)ncn2CC2CCCN2)o1 (stereo not shown) [Compound 88, N-(2-fluorophenyl)-5-(4-(4-fluorophenyl)-1-(pyrrolidin-2-ylmethyl)-1H-imidazol-5-yl)furan-2-carboxamide]	8450 nM	8450 nM	12400 nM
O=C(Nc1ccc(Cl)cc1F)c1ccc(-c2c(-c3ccc(F)cc3)ncn2C2CCCCC2)o1 [Compound 76, N-(4-chloro-2-fluorophenyl)-5-(1-cyclohexyl-4-(4-fluorophenyl)-1H-imidazol-5-yl)furan-2-carboxamide]	42 nM	42 nM	70.3 nM
COc1ccc(NC(=O)c2ccc(-c3c(-c4ccc(F)cc4)ncn3C3CCCCC3)o2)cc1 [Compound 54, 5-(1-cyclohexyl-4-(4-fluorophenyl)-1H-imidazol-5-yl)-N-(4-methoxyphenyl)furan-2-carboxamide]	60 nM	60 nM	107 nM
Cc1ccc(NC(=O)c2ccc(-c3c(-c4ccc(F)cc4)ncn3C3CCCCC3)o2)c(Cl)c1 [Compound 68, N-(2-chloro-4-methylphenyl)-5-(1-cyclohexyl-4-(4-fluorophenyl)-1H-imidazol-5-yl)furan-2-carboxamide]	19 nM	19 nM	71.7 nM
COc1cc(NC(=O)c2ccc(-c3c(-c4ccc(F)cc4)ncn3C3CCCC3)o2)cc(OC)c1 [Compound 19, 5-(1-cyclopentyl-4-(4-fluorophenyl)-1H-imidazol-5-yl)-N-(3,5-dimethoxyphenyl)furan-2-carboxamide]	231 nM	231 nM	204 nM
CC(=O)Nc1ccc(NC(=O)c2ccc(-c3c(-c4ccc(F)cc4)ncn3C3CCCCC3)o2)cc1 [Compound 78, N-(4-acetamidophenyl)-5-(1-cyclohexyl-4-(4-fluorophenyl)-1H-imidazol-5-yl)furan-2-carboxamide]	15 nM	15 nM	34.6 nM
Cc1ccc(Cl)cc1NC(=O)c1ccc(-c2c(-c3ccc(F)cc3)ncn2C2CCCC2)o1 [Compound 17, N-(5-chloro-2-methylphenyl)-5-(1-cyclopentyl-4-(4-fluorophenyl)-1H-imidazol-5-yl)furan-2-carboxamide]	46 nM	46 nM	106 nM
Cc1ccc(NC(=O)c2ccc(-c3c(-c4ccc(F)cc4)ncn3C3CCCC3)o2)cc1Cl [Compound 30, N-(3-chloro-4-methylphenyl)-5-(1-cyclopentyl-4-(4-fluorophenyl)-1H-imidazol-5-yl)furan-2-carboxamide]	95 nM	95 nM	888 nM
COc1ccc(NC(=O)c2ccc(-c3c(-c4ccc(F)cc4)ncn3C3CCCC3)o2)cc1OC [Compound 11, 5-(1-cyclopentyl-4-(4-fluorophenyl)-1H-imidazol-5-yl)-N-(3,4-dimethoxyphenyl)furan-2-carboxamide]	42 nM	42 nM	93.2 nM
Cc1cc(NC(=O)c2ccc(-c3c(-c4ccc(F)cc4)ncn3C3COC3)o2)c(F)cn1 [Compound A-48, N-(5-fluoro-2-methylpyridin-4-yl)-5-(4-(4-fluorophenyl)-1-(oxetan-3-yl)-1H-imidazol-5-yl)furan-2-carboxamide]		49.9 nM	194 nM
O=C(Nc1ccc(F)c(F)c1)c1ccc(-c2c(-c3ccc(F)cc3)ncn2C2CCCC2)o1 [Compound 41, 5-(1-cyclopentyl-4-(4-fluorophenyl)-1H-imidazol-5-yl)-N-(3,4-difluorophenyl)furan-2-carboxamide]	180 nM	180 nM	639 nM
O=C(Nc1cccc(F)c1)c1ccc(-c2c(-c3ccc(F)cc3)ncn2C2CCCCC2)o1 [Compound 63, 5-(1-cyclohexyl-4-(4-fluorophenyl)-1H-imidazol-5-yl)-N-(3-fluorophenyl)furan-2-carboxamide]	108 nM	108 nM	127 nM
COc1cnccc1NC(=O)c1ccc(-c2c(-c3ccc(F)cc3)ncn2CC2CCOC2)o1 (stereo not shown) [Compound A-37, 5-(4-(4-fluorophenyl)-1-((tetrahydrofuran-3-yl)methyl)-1H-imidazol-5-yl)-N-(3-methoxypyridin-4-yl)furan-2-carboxamide]		26.4 nM	50.3 nM

Now from value to molecule:

IC50 [1, 3]	IC50 ([1]; read-out: TNIK_IC50)	IC50 [2]	Compound
523 nM	523 nM	610 nM	O=C(Nc1ccc(OC(F)(F)F)cc1)c1ccc(-c2c(-c3ccc(F)cc3)ncn2C2CCCC2)o1 [Compound 44, 5-(1-cyclopentyl-4-(4-fluorophenyl)-1H-imidazol-5-yl)-N-(4-(trifluoromethoxy)phenyl)furan-2-carboxamide]
55 nM	55 nM	97.9 nM	O=C(Nc1ccc(F)cc1)c1ccc(-c2c(-c3ccc(F)cc3)ncn2C2CCCC2)o1 [Compound 26, 5-(1-cyclopentyl-4-(4-fluorophenyl)-1H-imidazol-5-yl)-N-(4-fluorophenyl)furan-2-carboxamide]
4450 nM	4450 nM	> 1000 nM	Cc1ccc(-c2ncn(C3CCCCC3)c2-c2ccc(C(=O)Nc3ccc(F)cc3)o2)cc1 [Compound 8, 5-(1-cyclohexyl-4-(p-tolyl)-1H-imidazol-5-yl)-N-(4-fluorophenyl)furan-2-carboxamide]
101 nM	101 nM	141 nM	COc1cccc(NC(=O)c2ccc(-c3c(-c4ccc(F)cc4)ncn3C3CCCC3)o2)c1 [Compound 12, 5-(1-cyclopentyl-4-(4-fluorophenyl)-1H-imidazol-5-yl)-N-(3-methoxyphenyl)furan-2-carboxamide]
24 nM	24 nM	43.4 nM	O=C(Nc1ccccc1Cl)c1ccc(-c2c(-c3ccc(F)cc3)ncn2C2CCCCC2)o1 [Compound 55, N-(2-chlorophenyl)-5-(1-cyclohexyl-4-(4-fluorophenyl)-1H-imidazol-5-yl)furan-2-carboxamide]
874 nM	874 nM	> 1000 nM	Cc1cccc(C)c1NC(=O)c1ccc(-c2c(-c3ccc(F)cc3)ncn2C2CCCCC2)o1 [Compound 60, 5-(1-cyclohexyl-4-(4-fluorophenyl)-1H-imidazol-5-yl)-N-(2,6-dimethylphenyl)furan-2-carboxamide]
< 10 nM	43.2 nM	51.6 nM	Cc1ccc(NC(=O)c2ccc(-c3c(-c4ccc(F)cc4)ncn3C3CCCC3)o2)cc1 [Compound 47, 5-(1-cyclopentyl-4-(4-fluorophenyl)-1H-imidazol-5-yl)-N-(p-tolyl)furan-2-carboxamide]
172 nM	172 nM	139 nM	Cc1cc(F)ccc1NC(=O)c1ccc(-c2c(-c3ccc(F)cc3)ncn2C2CCCC2)o1 [Compound 43, 5-(1-cyclopentyl-4-(4-fluorophenyl)-1H-imidazol-5-yl)-N-(4-fluoro-2-methylphenyl)furan-2-carboxamide]
102 nM	102 nM	243 nM	Cc1ccc(NC(=O)c2ccc(-c3c(-c4ccc(F)cc4)ncn3C3CCCC3)o2)cc1F [Compound 40, 5-(1-cyclopentyl-4-(4-fluorophenyl)-1H-imidazol-5-yl)-N-(3-fluoro-4-methylphenyl)furan-2-carboxamide]
